From US20090062243A1, “Lupane-Type Triterpenoids Modified at 30-Position and Analogues Thereof” (ADVANCED LIFE SCIENCES, INC., priority 2007, published 2009)

Tests used:
[1] = system: MCF-7 (breast carcinoma); experiment: MTS cell viability assay, MCF-7; type: cell-based
Experimental: (§1) Cells were plated, the evening before treatment, for each treatment on 96-well plates (1×10^4 cells/well) in 100 μL volume per well. Analog solutions were prepared by diluting each test compound in DSMO (10 mM) with the appropriate cell growth media for each individual cell line, or in “Universal Media” if several cell lines were to be assayed in parallel, immediately prior to cell treatment. Universal Media consisted of 5 mL sodium pyruvate (100× liquid stock, MediaTech), 5 mL glucose (100×, 45% liquid stock, MediaTech), 5 mL Penicillin/Streptomycin (100× liquid stock, MediaTech), 10 mL sodium bicarbonate (50× liquid stock, MediaTech), 25 mL Fetal Calf Serum, 1.25 mL insulin (4 mg/mL, Gibco) and […] RPMI media with 2 mM L-glutamine for a total volume of 500 mL.
(§2) Cells were treated by aspirating plating media from each well and adding 80 μL of betulinic acid (control) or each analog solution in serial dilutions to the adherent cells. All treatments were performed in triplicate. Growth media (80 μL) was added to 3 blank wells (no cells) to measure background from the growth media. Growth media alone (no DMSO or test compound) was added to 3 wells containing cells to measure the baseline MTS activity. Vehicle (DMSO) control in serial dilutions, added to cells, was also included to monitor basal toxicity from DMSO. Cells were incubated at 37° C. for 72 h, or 120 h for the OVCAR cell lines. MTS reagent (per 96-well plate) were prepared by combining 2 mL of MTS working solution (Cell Titer AQueous Non-Radioactive Cell Proliferation Assay, Promega, cat#G1112), 100 μL of 0.92 mg/mL phenazine methosulfate/Dulbecco's PBS and 2.1 mL growth media. MTS reagent (40 μL) were added to each well and incubated at 37° C. for 1.5 to 4 h. Plates were gently shaken by hand until solution in each well appeared homogenous. Absorbances at 490 nm were measured on a Wallac Victor II plate reader at multiple time points following the addition of MTS reagent for each plate. Triplicate absorbance (490 nm) measurements were averaged following background (no cell) subtraction for each drug concentration. Percent Cell Viability was calculated for each drug concentration using the following equation:
(§3) {[Absorbance(analog treated)]/[Absorbance(DMSO treated)]}×100%
(§4) Cytotoxicity dose response for the triterpenoid derivatives synthesized in SK-MEL-2 (melanoma), A-375 (melanoma), Daoy (glioblastoma), LN-229 (glioblastoma), OVCAR-3 (ovarian carcinoma), HT-29 (colon carcinoma), MCF-7 (breast carcinoma) cell lines using the standard MTS assay is summarized in Table 1. In Table 1, compounds 22a-d and compounds 23a-c refer to structures 22 and 23 in Scheme 5, respectively. Compounds 24aa-an and 24ba-bq refer to structure 24 in Scheme 6. Compounds 26a-e refer to structure 26 in Scheme 6. Compounds 36a-c refer to structure 36 in Scheme 10.

[2] = system: OVCAR-3 (ovarian carcinoma); experiment: MTS cell viability assay, OVCAR-3; type: cell-based
Experimental: as §1, §2, §3, §4

[3] = system: LN-229 (glioblastoma); experiment: MTS cell viability assay, LN-229; type: cell-based
Experimental: as §1, §2, §3, §4

[4] = system: A-375 (melanoma); experiment: MTS cell viability assay, A-375; type: cell-based
Experimental: as §1, §2, §3, §4

[5] = system: HT-29 (colon carcinoma); experiment: MTS cell viability assay, HT-29; type: cell-based
Experimental: as §1, §2, §3, §4

[6] = system: CEM; experiment: MTS cell viability assay, CEM; type: cell-based; conditions: cells incubated 72 h
Experimental: as §1, §2, §3

[7] = system: SK-MEL-2 (melanoma); experiment: MTS cell viability assay, SK-MEL-2; type: cell-based
Experimental: as §1, §2, §3, §4

[8] = system: Daoy; experiment: MTS cell viability assay, Daoy; type: cell-based; conditions: cells incubated 72 h
Experimental: as §1, §2, §3, §4

[9] = system: H-146; experiment: MTS cell viability assay, H-146; type: cell-based
Experimental: as §1, §2, §3

[10] = Homo sapiens, MCF7, cells incubated 72 h
[11] = Homo sapiens, OVCAR-3, 120 h for the OVCAR cell lines
[12] = Homo sapiens, LN-229, cells incubated 72 h
[13] = Homo sapiens, A-375, cells incubated 72 h
[14] = Homo sapiens, HT-29, cells incubated 72 h
[15] = Homo sapiens, SK-MEL-2, cells incubated 72 h
[16] = Homo sapiens, NCI-H146, cells incubated 72 h

| SMILES | IC50 [1, 10] [µM] | IC50 [2, 11] [µM] | IC50 [3, 12] [µM] | IC50 [4, 13] [µM] | IC50 [5, 14] [µM] | IC50 ([6]; Homo sapiens, CCRF-CEM) [µM] | IC50 [7, 15] [µM] | IC50 ([8]; Homo sapiens, Daoy) [µM] | IC50 [9, 16] [µM] | IC50 ([1]; cells incubated 72 h) [µM] | IC50 ([2]; 120 h for the OVCAR cell lines) [µM] | IC50 ([3]; cells incubated 72 h) [µM] | IC50 ([4]; cells incubated 72 h) [µM] | IC50 ([5]; cells incubated 72 h) [µM] | IC50 [6] [µM] | IC50 ([7]; cells incubated 72 h) [µM] | IC50 [8] [µM] | IC50 ([9]; cells incubated 72 h) [µM] | melting point [°C] |
| --- | --- | --- | --- | --- | --- | --- | --- | --- | --- | --- | --- | --- | --- | --- | --- | --- | --- | --- | --- |
| C=C(CO)[C@@H]1CC[C@]2(CO)CC[C@]3(C)[C@H](CC[C@@H]4[C@@]5(C)C=CC(=O)C(C)(C)[C@@H]5CC[C@]43C)[C@@H]12 [Compound 30] | > 75 | > 75 | 68 | 61 | 67 | 16 | > 75 | > 75 | 66 | – | – | – | – | – | – | – | – | – | – |
| C=C(C)[C@@H]1CC[C@]2(C(=O)O)CC[C@]3(C)[C@H](CC[C@@H]4[C@@]5(C)CC[C@H](O)C(C)(C)[C@@H]5CC[C@]43C)[C@@H]12 [Compound 1, betulinic acid (3β-hydroxy-lup-20(29)-en-28-oic acid), reference compound] | – | – | – | – | – | – | – | – | – | 30 | 40 | 29 | 22 | 31 | 2 | 7 | 11 | 8 | – |
| C=C(C=O)[C@@H]1CC[C@]2(COC3CCCCO3)CC[C@]3(C)[C@H](CC[C@@H]4[C@@]5(C)C=CC(=O)C(C)(C)[C@@H]5CC[C@]43C)[C@@H]12 (some centres unmarked) [Compound 34] | 8 | 2 | 6 | 1 | 2 | 1 | 2 | 6 | 2 | – | – | – | – | – | – | – | – | – | – |
| C=C(CO)[C@@H]1CC[C@]2(CO)CC[C@]3(C)[C@H](CC[C@@H]4[C@@]5(C)CCC(=O)C(C)(C)[C@@H]5CC[C@]43C)[C@@H]12 [Compound 7a] | 43 | 43 | > 75 | 40 | 44 | 45 | > 75 | > 75 | 60 | – | – | – | – | – | – | – | – | – | – |
| C=C(C=O)[C@@H]1CC[C@]2(CO)CC[C@]3(C)[C@H](CC[C@@H]4[C@@]5(C)C=CC(=O)C(C)(C)[C@@H]5CC[C@]43C)[C@@H]12 [Compound 35] | 32 | 6 | 58 | 6 | 8 | 2 | 14 | 17 | 5 | – | – | – | – | – | – | – | – | – | – |
| C=C(CO)[C@@H]1CC[C@]2(CO)CC[C@]3(C)[C@H](CC[C@@H]4[C@@]5(C)CCC(N)C(C)(C)[C@@H]5CC[C@]43C)[C@@H]12 (some centres unmarked) [Compound 24ab] | 15 | 14 | 17 | 6 | 17 | – | 34 | 31 | – | – | – | – | – | – | – | – | – | – | 189 to 199 |
| C=C(CO)[C@@H]1CC[C@]2(CO)CC[C@]3(C)[C@H](CC[C@@H]4[C@@]5(C)CCC(NCCOC)C(C)(C)[C@@H]5CC[C@]43C)[C@@H]12 (some centres unmarked) [Compound 24af] | – | – | – | – | – | – | – | – | – | 40 | 40 | 38 | 18 | 47 | – | 38 | 34 | – | – |
| C=C(CO)[C@@H]1CC[C@]2(COC3CCCCO3)CC[C@]3(C)[C@H](CC[C@@H]4[C@@]5(C)CCC(NCCO)C(C)(C)[C@@H]5CC[C@]43C)[C@@H]12 (some centres unmarked) [Compound 24ac] | 36 | 7 | 11 | 13 | 60 | – | 15 | 15 | – | – | – | – | – | – | – | – | – | – | – |
| C=C(CO)[C@@H]1CC[C@]2(COC3CCCCO3)CC[C@]3(C)[C@H](CC[C@@H]4[C@@]5(C)CCC(NCCc6ccc(O)c(O)c6)C(C)(C)[C@@H]5CC[C@]43C)[C@@H]12 (some centres unmarked) [Compound 24ai] | 16 | 4 | 16 | 14 | 26 | – | 5 | 6 | – | – | – | – | – | – | – | – | – | – | – |
| C=C(C=O)[C@@H]1CC[C@]2(COC(C)=O)CC[C@]3(C)[C@H](CC[C@@H]4[C@@]5(C)CCC(=O)C(C)(C)[C@@H]5CC[C@]43C)[C@@H]12 [Compound 14a] | 56 | 4 | 9 | 16 | 46 | – | 12 | 7 | – | – | – | – | – | – | – | – | – | – | – |
| C=C(CO)[C@@H]1CC[C@]2(CO)CC[C@]3(C)[C@H](CC[C@@H]4[C@@]5(C)CCC(NCCO)C(C)(C)[C@@H]5CC[C@]43C)[C@@H]12 (some centres unmarked) [Compound 24ad] | 41 | 39 | 37 | 16 | 65 | – | 34 | 29 | – | – | – | – | – | – | – | – | – | – | – |
| C=C(COS(C)(=O)=O)[C@@H]1CC[C@]2(CO)CC[C@]3(C)[C@H](CC[C@@H]4[C@@]5(C)CCC(=O)C(C)(C)[C@@H]5CC[C@]43C)[C@@H]12 [Compound 21b] | 54 | > 75 | 46 | 21 | 17 | – | > 75 | > 75 | – | – | – | – | – | – | – | – | – | – | – |
